PubChem BioAssay (NCI)
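Grown in 96-well plates, cells were treated for 48 hours with each compound at five concentrations. Insufficient inhibition: endpoint recorded as highest concentration tested. At the GI50, growth is halved. At the TGI there is no net growth.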

What was measured:
Experiment in all cases: NCI anticancer screen, dose series, 48 h
786-0 renal = tested on: 786-0 renal
A549 NSCLC = tested on: A549 NSCLC
ACHN renal = tested on: ACHN renal
HCC-2998 colon = tested on: HCC-2998 colon
HL-60(TB) leukemia = tested on: HL-60(TB) leukemia
HS 578T breast = tested on: HS 578T breast
HT29 colon = tested on: HT29 colon
MOLT-4 leukemia = tested on: MOLT-4 leukemia
OVCAR-8 ovarian = tested on: OVCAR-8 ovarian
T-47D breast = tested on: T-47D breast

SMILES | GI50 (786-0 renal) [µM] | TGI (786-0 renal) [µM] | GI50 (A549 NSCLC) [nM] | TGI (A549 NSCLC) [µM] | GI50 (ACHN renal) [µM] | TGI (ACHN renal) [µM] | GI50 (HCC-2998 colon) [nM] | TGI (HCC-2998 colon) [µM] | GI50 (HL-60(TB) leukemia) [nM] | TGI (HL-60(TB) leukemia) [µM] | GI50 (HS 578T breast) [nM] | TGI (HS 578T breast) [µM] | GI50 (HT29 colon) [nM] | TGI (HT29 colon) [µM] | GI50 (MOLT-4 leukemia) [nM] | TGI (MOLT-4 leukemia) [µM] | GI50 (OVCAR-8 ovarian) [nM] | TGI (OVCAR-8 ovarian) [µM] | GI50 (T-47D breast) [µM] | TGI (T-47D breast) [µM]
N#Cc1c(Oc2ccc(F)c(NC(=O)Cc3cccc(C(F)(F)F)c3)c2)ccc2nc(NC(=O)C3CC3)sc12 | 1.33 | > 100 | 703 | > 100 | 0.801 | > 100 | 581 | > 100 | 480 | > 100 | 534 | 3.33 | 53.3 | > 100 | 673 | > 100 | 731 | > 100 | 3.22 | > 100
COc1ccc(-c2cncn2-c2cc(OC)c(OC)c(OC)c2)cc1F | < 0.0214 | > 49.2 | < 34.8 | > 100 | – | – | 10.1 | 13.4 | 10.3 | < 0.0288 | 332 | > 100 | < 10 | > 38.6 | < 28.3 | > 100 | < 48.8 | > 100 | < 0.01 | > 100
C/C(=N\Nc1cccc(Cl)n1)c1ccccn1 | 0.671 | 17.5 | 932 | > 100 | 0.556 | 18.4 | 750 | > 100 | 446 | 3.94 | 5080 | > 100 | 909 | > 100 | 407 | > 100 | 510 | > 100 | 1.09 | 13.1
O=C(CC1(O)C(=O)Nc2c(Cl)ccc(Cl)c21)c1ccc(C2CC2)cc1 (stereo not drawn) | 1.78 | 16.9 | 2090 | 19.8 | 2.19 | 20.2 | 1850 | 18.2 | 318 | 10.3 | 1830 | 8.58 | 586 | 2.22 | 1190 | 18.1 | 1430 | 13.4 | 1.56 | 27.1
O=C1c2cccc3cc([N+](=O)[O-])cc(c23)C(=O)N1O | – | > 100 | – | > 100 | – | > 100 | – | 65.2 | – | > 100 | – | > 100 | – | > 100 | – | > 100 | – | > 100 | – | > 100
CCOc1cc(/C=N\NC(=O)N/N=C/c2ccc(O)c(OCC)c2)ccc1O | 7.68 | > 100 | 6950 | > 100 | 7.99 | > 100 | 2970 | > 100 | 2500 | > 39.2 | 1160 | > 100 | 3380 | > 100 | 3410 | > 76.8 | 4260 | > 100 | 6.49 | > 100
O=C(NO)c1cnc(N2CCN(S(=O)(=O)c3ccc4ccccc4c3)CC2)nc1 | 0.193 | 2.83 | 45.9 | 0.37 | 0.0723 | 0.595 | 110 | 0.32 | 45.7 | 29.8 | 101 | > 47.3 | 34.4 | 2.11 | 42.4 | > 41.3 | 27.6 | 1.92 | 0.0227 | 1.79
CCc1ccccc1-n1c(N)c(C#N)c(-c2ccc(OC)c(OC)c2)c(C#N)c1=O | 18.8 | 33.3 | 34400 | > 100 | 19.7 | 53.7 | 31900 | > 100 | > 100000 | > 100 | 15500 | 41.3 | 41000 | > 100 | > 100000 | > 100 | 18500 | 37.6 | 27.2 | > 100
CC1(C)CC2CC(C)(CN2c2ncnc3ccc(Br)cc23)C1 (stereo not drawn) | 12.8 | 25.4 | 2820 | 9.11 | 14.1 | 27 | 11700 | 23.9 | 1380 | 3.48 | 10300 | 30.4 | – | – | 134 | 11.2 | 12300 | 25 | 13 | 31.2
O=C1c2ccccc2C(=O)c2c(NC(=O)c3ccc4c5c(ncnc35)-c3ccccc3C4=O)cccc21 | – | 84.7 | – | > 100 | – | > 100 | – | > 100 | – | – | – | > 100 | – | > 100 | – | > 100 | – | > 100 | – | > 100
CC(=O)/C=C/C1=C(c2ccsc2)c2ccccc2CC1 | 34.1 | > 100 | 17400 | 37.5 | 25.9 | 61.1 | 18200 | 36.2 | – | – | 48400 | > 100 | 54300 | > 100 | 17600 | 37.1 | 18200 | 39.3 | 66 | > 100
Cc1ccc(-c2cc(/C=N/O)on2)cc1 | 50.4 | > 100 | 51000 | > 100 | 54.8 | > 100 | – | – | 26500 | > 100 | > 100000 | > 100 | 48400 | > 100 | 21900 | > 100 | > 100000 | > 100 | 29.5 | > 100
OC(c1ccccc1)c1c(-c2ccccc2)oc(-c2ccccc2)c1C(O)c1ccccc1 (stereo not drawn) | – | 21 | – | 20.5 | – | 19.1 | – | 33 | – | 6.13 | – | 52.7 | – | 23.1 | – | 22 | – | – | – | 23.3
NC(=O)NC(=O)C1CCCCC1C(=O)O (stereo not drawn) | – | > 100 | – | > 100 | – | > 100 | – | – | – | > 100 | – | > 100 | – | > 100 | – | – | – | > 100 | – | > 100
